Source: article PMC10099666, “Structure Elucidation, Total Synthesis, Antibacterial In Vivo Efficacy and Biosynthesis Proposal of Myxobacterial Corramycin” (Angewandte Chemie (International Ed. in English), 2022)
≈ marks a conversion by molar mass, not a printed value. *1 amine or outer side, *2 acyl side, *3 side chain or, on linkers, in order; H or OH if unused. Where a SMILES comes first, the peptide text is derived from it. [ ]: non-standard residue; d: D form. The star is where a group is joined. Ava(2S,3R-(OH)2,4S-OMe) = CO[C@@H](CN[*:1])[C@H](O)[C@H](O)C(=O)[*:2]; dHis(βS-OH,π-Me) = Cn1cncc1[C@@H](O)[C@@H](N)C(=O)O; Butanoyl(2R-OH,3S-OH) = C[C@H](O)[C@@H](O)C(=O)*; Val(3-OH) = CC(C)(O)[C@H](N)C(=O)O; NMeF = CN[C@@H](Cc1ccccc1)C(=O)O

Legend:
[1] = system: mice infected with E. coli ATCC35218; assay type: in vivo; details: i.v. 20 mg kg^−1 Corramycin in E. coli mouse infection model
Description: As bacterial resistance development in minimal media is thought to be more mimetic to an actual infection in vivo, we decided to test the in vivo efficacy of Corramycin in infected mice, despite the poor FoR experiment results in the rich medium. The mice were first infected intraperitoneally with E. coli ATCC35218 and subsequently treated with different doses of Corramycin ranging from a total of 10 to 30 mg per kg body weight divided into two doses, 1 hour and 3 hours after infection.
Figure 4 In vivo antibacterial activity of Corramycin in infected mice. A) Colony forming unit (CFU) load of E. coli ATCC35218 in blood 4 hours post infection with 2.10^7 CFU. 5 mice per dose were used. […]; Tienam: Imipenem/Cilastatin treatment (positive control, dark grey bar); Corramycin treatment with different doses (light blue, blue and dark blue bars). B) Survival rate [in %] of 10 mice per dose 3, 6, 24, 48, 72 and 96 hours post infection.
13.2 Complementation of SbmA and YejEF in the E. coli deletion mutant […]
14.1 Infection of the test animals and treatment with Corramycin in vivo For the in vivo infection and antibiotic treatment experiments a total of 75 male Swiss albino mice, divided into five groups with 15 animals, were used. Before infecting the test animals, the weight of each animal was determined (Suppl. Raw Data 1). […]

[2] = system: Escherichia coli NCTC10418; assay type: cell-based; details: strain NCTC10418; CAMHB, CLSI/EUCAST broth microdilution, 5x10^5 CFU mL-1, 20-22 h, duplicates
Description: (§1) 5. Determination of the minimal inhibitory concentration (MIC) in vitro The MIC of Corramycin was evaluated following the Clinical & Laboratory Standard Institute (CLSI; https://clsi.org) and EUCAST (https://eucast.org) guidelines. First, inoculi of the bacterial test strains were prepared by culturing isolated colonies in cation-adjusted Müller Hinton broth (CAMHB; 2 g L-1 beef infusion solids, 1.5 g L-1 starch, 17.5 g L-1 casein hydrolysates, final pH 7.4) at 37 °C and 180 rpm for 18 h. Next, Corramycin, which was dissolved in DMSO, was transferred into the first row of a 96-well plate to reach an end concentration of 64 µg mL-1 (in 100 µL total volume). A 1:1 serial dilution in cation-adjusted Mueller Hinton broth (CAMHB) of the test compound was done from the top row to the bottom row of the 96-well plate to reach an end concentration of 0.125 µg mL-1 in the bottom row. Afterwards, the respective test strains were transferred into the wells, reaching a total volume of 100 µL and 5x10^5 colony-forming units (CFU) mL-1. After a 20 to 22 h of incubation, the optical density was evaluated on a microplate reader and the MIC endpoint was determined as the lowest concentration of antibiotic at which there was no visible growth observed. Each MIC experiment was performed in duplicates. Table S 4 depicts the MIC values of Corramycin against all bacterial strains tested in this study.
(§2) Table S 4. MIC values of Corramycin against all bacterial strains tested in this study. […]

[3] = system: Enterobacter cloacae 17059482; assay type: cell-based; details: strain 17059482; CAMHB, CLSI/EUCAST broth microdilution, 5x10^5 CFU mL-1, 20-22 h, duplicates
Description: as §1, §2

[4] = system: Enterobacter cloacae DSM46348; assay type: cell-based; details: strain DSM46348; CAMHB, CLSI/EUCAST broth microdilution, 5x10^5 CFU mL-1, 20-22 h, duplicates
Description: as §1, §2

[5] = system: Enterococcus faecium A6349; assay type: cell-based; details: strain A6349; CAMHB, CLSI/EUCAST broth microdilution, 5x10^5 CFU mL-1, 20-22 h, duplicates
Description: as §1, §2

[6] = system: Escherichia coli ATCC35218; assay type: cell-based; details: strain ATCC35218; CAMHB, CLSI/EUCAST broth microdilution, 5x10^5 CFU mL-1, 20-22 h, duplicates
Description: as §1, §2

[7] = system: Escherichia coli NCTC13441; assay type: cell-based; details: strain NCTC13441; CAMHB, CLSI/EUCAST broth microdilution, 5x10^5 CFU mL-1, 20-22 h, duplicates
Description: as §1, §2

[8] = system: Enterococcus faecalis 1069 VanB; assay type: cell-based
Description: as §1, with “study. […]” for “study.”

CO[C@@H](CNC(=O)[C@H](NC(=O)[C@H](O)[C@H](C)O)[C@H](O)c1cncn1C)[C@H](O)[C@H](O)C(=O)N(C)[C@@H](Cc1ccccc1)C(=O)NCC(=O)N[C@H](C(=O)N[C@@H](CO)C(=O)N[C@H](C(=O)N[C@@H](CC(C)C)C(=O)N[C@@H](CO)C(=O)O)C(C)(C)O)C(C)(C)O [Corramycin] ({Butanoyl(2R-OH,3S-OH)}-[dHis(βS-OH,π-Me)][Ava(2S,3R-(OH)2,4S-OMe)][NMeF]G[Val(3-OH)]S[Val(3-OH)]LS-OH)
Toxic side effects in mice [1]: without toxic side effects
MIC [2]: 8 µg/mL (≈ 6.76 µM)
MIC [3]: >64 µg/mL
MIC [4]: 32 µg/mL (≈ 27 µM)
MIC [5]: >64 µg/mL
MIC [6]: 1 to 4 µg/mL
MIC [7]: 4 µg/mL (≈ 3.38 µM)
MIC [8]: 16 µg/mL (≈ 13.5 µM)
